Data reported in patent US12448388B2, “PRMT5 inhibitors and uses thereof” (Gilead Sciences, Inc., priority 2023, dated 2025).
Where two headings read alike, the source gives them in different places.

Tests used:
Assay type in all cases: cell-based
[1] = Cell viability assay (CellTiter-Glo, 7 days), HCT116 WT; settings: human, HCT116 WT cells, 7 days of treatment, CTG
Description: Control compounds were analyzed in parallel each time for quality control. In Brief, on Day -1, a serial dilution of stock compounds in DMSO was performed using BioMek liquid handlers and dispensed using Echo acoustic dispenser into 384 well plates. Both tool compounds and sample compounds were spotted in the same plate for a dose response of PRMT5 inhibitors. Compound plates were stored as frozen until the cells were ready for seeding. […] After equilibrating the plate in room temperature, the cells were incubated for 7 days inside the sealed incubator set at 37° C. with 90% humidity and 5% CO2. On Day 7, the viability of cells was measured using a CTG assay kit (CellTitre-Glo;Promega cat no. G7573). Shortly, 40 μl per well of luminescent cell viability assay reagent were dispensed using EL460 liquid dispenser 5 μl cassette. CTG luminescence signal was measured using an EnVision plate reader (PerkinElmer) in accordance with manufacturer's instruction. […] Selectivity with * is artificially high due to limited solubility of the compound hampering accurate measurement of WT CC50.

[2] = tested on: HCT116 MTAP-deleted cell lines; assay: Cell viability assay (CellTiter-Glo, 7 days), HCT116 MTAP-deleted; settings: for Selectivity: HCT116 WT CC50 versus HCT116 MTAP^del CC50; for CC50: Homo sapiens, HCT116 MTAP-deleted
Method in brief: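 PRMT5 inhibitors were serially diluted in DMSO and acoustically spotted as dose-response series into plates before cell seeding. Cells were grown with compound for 7 days at 37 °C, 5% CO2, 90% humidity, then viability was read by CellTiter-Glo luminescence and reported as CC50.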

[3] = tested on: Symmetric Di-methyl Arginine (SDMA) signal (PRMT5 inhibition) in HCT116 MTAP-deleted cells; assay: Symmetric di-methyl arginine image-based high content screen assay (SDMA assay), HCT116 MTAP-deleted; settings: for EC50: Homo sapiens, HCT-116, HCT116 MTAP-deleted, class symbols
Method in brief: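 HCT116 WT and MTAP-deleted cells (800/well, RPMI 1640 + 10% FBS) treated with compound 3 days at 37 °C; formalin-fixed, stained with anti-SDMA antibody/Alexa 488 plus DAPI. Mean SDMA intensity per DAPI-defined cell imaged; EC50 from 4-parameter logistic fit.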

[4] = HCT-116, 168 h, 7 days of treatment, CTG, read-out: CC50-HCT116-MTAP^del
[5] = HCT-116, cell viability assay, class symbols, read-out: CC50
[6] = HCT116 WT vs HCT116 MTAP-deleted
[7] = HCT116 WT versus HCT116 MTAP-deleted
[8] = HCT-116, cell viability, class symbols, read-out: CC50

SMILES | EC50 selectivity [3, 6] | EC50 [3] [nM] | EC50 selectivity [3, 7] | CC50 at 7 days [1] [nM] | Selectivity [2] | plasma-adjusted CC50 (paCC50) ([2]; HCT-116, paCC50 = CC50-HCT116-MTAP^del * (% free CCM/% free human plasma)) [nM] | CC50 [2, 4] [nM] | CC50 [2, 5] [nM] | CC50 [2, 8] [nM]
Cc1ncn2c1c(N)nc1cnc(C(=O)N3CC[C@H]4C[C@@H]3c3ccc(OC(F)(F)F)cc3O4)cc12 [Ff-632, (4-amino-3-methylimidazo[1,5-a]pyrido[3,4-e]pyrazin-8-yl)((2S,6R)-9-(trifluoromethoxy)-3,4-dihydro-2H-2,6-methanobenzo[b][1,5]oxazocin-5(6H)-yl)methanone] | – | – | – | 1680 | 93 | 270 | 18 | < 100 | –
CN(C(=O)c1cc2c(cc1F)nc(N)c1cncn12)[C@@H]1COc2cc(N3CCOCC3)ccc21 [Ff-144, (S)-4-amino-7-fluoro-N-methyl-N-(6-morpholino-2,3-dihydrobenzofuran-3-yl)imidazo[1,5-a]quinoxaline-8-carboxamide] | – | 1 to 5 | 157 | – | – | – | – | – | < 100
CCN(Cc1ccc(C(F)(F)F)cc1F)C(=O)c1ccc2nc(N)c3cncn3c2c1 [Ff-25, 4-amino-N-ethyl-N-[[2-fluoro-4-(trifluoromethyl)phenyl]methyl]imidazo[1,5-a]quinoxaline-8-carboxamide] | – | 1 to 5 | 312 | – | – | – | – | – | < 100
Nc1nc2cc(F)c(C(=O)N3CCC[C@@H]4OCc5cc(OC(F)F)ccc5[C@@H]43)cc2n2cncc12 (single isomer, unassigned) [Ff-392] | 68 | ≤ 1 | – | – | – | – | – | < 100 | –
CN(C(=O)c1ccc2nc(N)c3cncn3c2c1)[C@@H]1COc2cc(Cl)ccc21 [Ff-566, (S)-4-amino-N-(6-chloro-2,3-dihydrobenzofuran-3-yl)-N-methylimidazo[1,5-a]quinoxaline-8-carboxamide] | 497 | 1 to 5 | – | – | – | – | – | 100 to 1000 | –
Cc1ncn2c1c(N)nc1cnc(C(=O)N3CC[C@H]4C[C@@H]3c3ccc(C(F)(F)F)c(F)c3O4)cc12 [Ff-633, (4-amino-3-methylimidazo[1,5-a]pyrido[3,4-e]pyrazin-8-yl)((2S,6R)-10-fluoro-9-(trifluoromethyl)-3,4-dihydro-2H-2,6-methanobenzo[b][1,5]oxazocin-5(6H)-yl)methanone] | 82 | 1 to 5 | – | 2080 | 104 | – | 20 | < 100 | –
Nc1nc2cnc(C(=O)N3CCC[C@@H]4Oc5cc(OC(F)(F)F)c(F)cc5[C@@H]43)cc2n2cncc12 [Ff-378, (4-aminoimidazo[1,5-a]pyrido[3,4-e]pyrazin-8-yl)((4aS,9bS)-8-fluoro-7-(trifluoromethoxy)-3,4,4a,9b-tetrahydrobenzofuro[3,2-b]pyridin-1(2H)-yl)methanone] | 106 | ≤ 1 | – | – | – | – | – | < 100 | –
Nc1nc2cc(F)c(C(=O)N(Cc3ccc(C(F)(F)F)cc3F)C(CO)CO)cc2n2cncc12 [Ff-27, 4-amino-7-fluoro-N-[[2-fluoro-4-(trifluoromethyl)phenyl]methyl]-N-[2-hydroxy-1-(hydroxymethyl)ethyl]imidazo[1,5-a]quinoxaline-8-carboxamide] | – | > 5 | 51 | – | – | – | – | – | > 1000
Cn1cc(N(Cc2ccc(C(F)(F)F)cc2F)C(=O)c2ccc3nc(N)c4cncn4c3c2)cn1 [Ff-278, 4-amino-N-(2-fluoro-4-(trifluoromethyl)benzyl)-N-(1-methyl-1H-pyrazol-4-yl)imidazo[1,5-a]quinoxaline-8-carboxamide] | – | 1 to 5 | 47 | – | – | – | – | – | < 100

Further lines, with some results ahead:

EC50 selectivity [3, 6] | EC50 [3] [nM] | EC50 selectivity [3, 7] | SMILES | CC50 at 7 days [1] [nM] | Selectivity [2] | plasma-adjusted CC50 (paCC50) ([2]; HCT-116, paCC50 = CC50-HCT116-MTAP^del * (% free CCM/% free human plasma)) [nM] | CC50 [2, 4] [nM] | CC50 [2, 5] [nM] | CC50 [2, 8] [nM]
88 | 1 to 5 | – | CCN(C(=O)c1ccc2nc(N)c3c(C)ncn3c2c1)[C@@H]1COc2cc(C(F)(F)F)ccc21 [Fg-6, (S)-4-amino-N-ethyl-3-methyl-N-(6-(trifluoromethyl)-2,3-dihydrobenzofuran-3-yl)imidazo[1,5-a]quinoxaline-8-carboxamide] | – | – | – | – | < 100 | –
– | > 5 | 152 | CC(=O)N(C)N(Cc1ccc(C(F)(F)F)cn1)C(=O)c1ccc2nc(N)n3cncc3c2c1 [Fa-1, N′-acetyl-5-amino-N′-methyl-N-((5-(trifluoromethyl)pyridin-2-yl)methyl)imidazo[1,5-c]quinazoline-9-carbohydrazide] | – | – | – | – | – | > 1000
70 | 1 to 5 | – | [2H]C([2H])([2H])c1ncn2c1c(N)nc1cnc(C(=O)N3CCC[C@@H]4Oc5cc(C(F)(F)F)ccc5[C@@H]43)cc12 [Ff-662, (4-amino-3-(methyl-d3)imidazo[1,5-a]pyrido[3,4-e]pyrazin-8-yl)((4aS,9bS)-7-(trifluoromethyl)-3,4,4a,9b-tetrahydrobenzofuro[3,2-b]pyridin-1(2H)-yl)methanone] | – | – | – | – | < 100 | –
– | > 5 | 390 | CC(=O)N(C)N(Cc1nc2cc(Cl)ccc2s1)C(=O)c1ccc2nc(N)c3cnc(C)n3c2c1 [Fb-6, N′-acetyl-4-amino-N-((5-chlorobenzo[d]thiazol-2-yl)methyl)-N′,1-dimethylimidazo[1,5-a]quinoxaline-8-carbohydrazide] | – | – | – | – | – | 100 to 1000
307 | > 5 | – | Cc1ncc2c3cc(C(=O)N(C)[C@@H]4COc5cc(C(F)(F)F)ccc54)ccc3nc(N)n12 [Fg-10, (S)-5-amino-N,3-dimethyl-N-(6-(trifluoromethyl)-2,3-dihydrobenzofuran-3-yl)imidazo[1,5-c]quinazoline-9-carboxamide] | – | – | – | – | > 1000 | –
– | 1 to 5 | 53 | CN(C(=O)c1cc2c(cc1F)nc(N)c1cncn12)[C@@H]1COc2cc(-n3cnc(C(F)(F)F)n3)ccc21 [Ff-324, (S)-4-amino-7-fluoro-N-methyl-N-(6-(3-(trifluoromethyl)-1H-1,2,4-triazol-1-yl)-2,3-dihydrobenzofuran-3-yl)imidazo[1,5-a]quinoxaline-8-carboxamide] | – | – | – | – | – | < 100
319 | 1 to 5 | – | C=Cc1cc2nc(N)c3cncn3c2cc1C(=O)N(C)[C@@H]1COc2cc(C(F)(F)F)ccc21 [Fg-51, (S)-4-amino-N-methyl-N-(6-(trifluoromethyl)-2,3-dihydrobenzofuran-3-yl)-7-vinylimidazo[1,5-a]quinoxaline-8-carboxamide] | – | – | – | – | < 100 | –
– | ≤ 1 | 299 | CCN(C(=O)c1ccc2nc(N)c3cncn3c2c1)[C@@H]1COc2cc(C(F)(F)F)ccc21 [Ff-8, (S)-4-amino-N-ethyl-N-(6-(trifluoromethyl)-2,3-dihydrobenzofuran-3-yl)imidazo[1,5-a]quinoxaline-8-carboxamide] | – | – | – | – | – | < 100
– | 1 to 5 | 587 | CN(C(=O)c1cc2c(cc1F)nc(N)c1cncn12)[C@@H]1COc2nc(C(F)(F)F)ccc21 [Ff-22, (S)-4-amino-7-fluoro-N-methyl-N-(6-(trifluoromethyl)-2,3-dihydrofuro[2,3-b]pyridin-3-yl)imidazo[1,5-a]quinoxaline-8-carboxamide] | – | – | – | – | – | < 100
– | ≤ 1 | 176 | CN(C(=O)c1cc2c(cc1F)nc(N)c1cncn12)C1CCc2nc(C(F)(F)F)ccc21 (centres unmarked) [Ff-13, 4-amino-7-fluoro-N-methyl-N-(2-(trifluoromethyl)-6,7-dihydro-5H-cyclopenta[b]pyridin-5-yl)imidazo[1,5-a]quinoxaline-8-carboxamide] | – | – | – | – | – | < 100
– | 1 to 5 | 73 | COc1ccc2c(c1)CO[C@H]1CCCN(C(=O)c3cc4c(cc3F)nc(N)c3cncn34)[C@@H]21 (racemic) [Ff-44, Rac-(4-amino-7-fluoroimidazo[1,5-a]quinoxalin-8-yl)((cis)-8-methoxy-2,3,4,4a,6,10b-hexahydro-1H-isochromeno[4,3-b]pyridin-1-yl)methanone] | – | – | – | – | – | < 100
– | ≤ 1 | 447 | CN(C(=O)c1cc2c(cc1F)nc(N)c1cncn12)[C@@H]1COc2cc(-n3cnc(C(F)(F)F)c3)ccc21 [Ff-325, (S)-4-amino-7-fluoro-N-methyl-N-(6-(4-(trifluoromethyl)-1H-imidazol-1-yl)-2,3-dihydrobenzofuran-3-yl)imidazo[1,5-a]quinoxaline-8-carboxamide] | – | – | – | – | – | < 100
